Source: PMC11492828 (RSC Advances, 2024)
Where two headings read alike, the source gives them in different places. One block for each molecule: values may come before it.

Columns and labels:
IL-6 = assay: Flow cytometric analysis of IL-6 expression in Aβ-induced SH-SY5Y cells; type: cell-based, human
TNF-α = assay: Flow cytometric analysis of TNF-α expression in Aβ-induced SH-SY5Y cells; type: cell-based, human
IL-1β = assay: Flow cytometric analysis of IL-1β expression in Aβ-induced SH-SY5Y cells; type: cell-based, human
ROS = assay: Flow cytometric analysis of ROS in Aβ-induced SH-SY5Y cells; type: cell-based, human
[1] = tested on: human neuroblastoma (SH-SY5Y) cells; assay: Cytotoxicity/cell viability MTT assay; type: cell-based; conditions: for Nature in cytotoxicity study: MTT
[2] = tested on: Aβ-induced SH-SY5Y cell line; assay: Anti-inflammatory and anti-oxidant activity in the Aβ-induced SH-SY5Y cell line; type: cell-based, human; conditions: 2.5 to 40 μM, vs pioglitazone
PPAR-γ = target: T1, PPAR-γ (Homo sapiens, UniProt P37231); assay: PPAR-γ transactivation assay; type: cell-based; conditions: SH-SY5Y cells, 1–16 μM
T1 sequence (P37231 1-505): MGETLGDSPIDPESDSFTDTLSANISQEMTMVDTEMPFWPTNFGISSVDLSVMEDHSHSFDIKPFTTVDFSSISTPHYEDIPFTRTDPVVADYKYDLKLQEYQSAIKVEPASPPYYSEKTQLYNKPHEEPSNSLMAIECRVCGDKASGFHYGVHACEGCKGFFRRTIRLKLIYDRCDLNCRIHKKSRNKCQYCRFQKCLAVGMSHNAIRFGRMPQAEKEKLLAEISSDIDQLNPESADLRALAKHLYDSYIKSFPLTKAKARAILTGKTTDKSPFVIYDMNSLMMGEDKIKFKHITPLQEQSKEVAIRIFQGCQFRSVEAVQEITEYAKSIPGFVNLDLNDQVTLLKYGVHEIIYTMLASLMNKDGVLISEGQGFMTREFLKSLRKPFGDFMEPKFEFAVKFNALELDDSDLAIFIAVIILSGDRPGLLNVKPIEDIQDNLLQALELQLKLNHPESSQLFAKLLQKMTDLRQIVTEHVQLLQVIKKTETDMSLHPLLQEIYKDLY

[3] = Homo sapiens, SH-SY5Y, read-out: IC50 MTT assay, SH-SY5Y cells
[4] = read-out: IC50 MTT assay, SH-SY5Y cells

Compound: CCc1ccc(CCOc2ccc(CC3SC(=O)NC3=O)cc2)nc1 (stereo not shown) [Pioglitazone, pioglitazone]
- IL-6% cell expression (IL-6; Aβ 10 μM + 2.5 μM compound): 42.95%
- IL-6% cell expression (IL-6; Aβ 10 μM + 5 μM compound): 30.23%
- IL-6% cell expression (IL-6; Aβ 10 μM + 10 μM compound): 15.09%
- IL-6% cell expression (IL-6; Aβ 10 μM + 20 μM compound): 9.51%
- IL-6% cell expression (IL-6; Aβ 10 μM + 40 μM compound): 12.31%
- TNF-α% cell expression (TNF-α; Aβ 10 μM + 2.5 μM compound): 67.8%
- TNF-α% cell expression (TNF-α; Aβ 10 μM + 5 μM compound): 53.92%
- TNF-α% cell expression (TNF-α; Aβ 10 μM + 10 μM compound): 24.85%
- TNF-α% cell expression (TNF-α; Aβ 10 μM + 20 μM compound): 9.8%
- TNF-α% cell expression (TNF-α; Aβ 10 μM + 40 μM compound): 5.5%
- IL-1β% cell expression (IL-1β; Aβ 10 μM + 2.5 μM compound): 70.21%
- IL-1β% cell expression (IL-1β; Aβ 10 μM + 5 μM compound): 52.38%
- IL-1β% cell expression (IL-1β; Aβ 10 μM + 10 μM compound): 32.36%
- IL-1β% cell expression (IL-1β; Aβ 10 μM + 20 μM compound): 15.15%
- IL-1β% cell expression (IL-1β; Aβ 10 μM + 40 μM compound): 10.76%
- ROS% cell expression (ROS; Aβ 10 μM + 2.5 μM compound): 60.98%
- ROS% cell expression (ROS; Aβ 10 μM + 5 μM compound): 53.96%
- ROS% cell expression (ROS; Aβ 10 μM + 10 μM compound): 41.78%
- ROS% cell expression (ROS; Aβ 10 μM + 20 μM compound): 21.01%
- ROS% cell expression (ROS; Aβ 10 μM + 40 μM compound): 9.07%

Compound: COc1cc(/C=C/C(C)=N/O)ccc1OCC(=O)Nc1ccccc1 [Compound 4c, 2-(4-((1E,3E)-3-(Hydroxyimino)but-1-en-1-yl)-2-methoxyphenoxy)-N-phenylacetamide]
- IC50 [1, 3]: 50.7 µM
- Nature in cytotoxicity study ([1]; SH-SY5Y cells): cytotoxic

Compound: COc1cc(/C=C/C(C)=N/O)ccc1OCC(=O)Nc1ccc(C)cc1 [Compound 4b, 2-(4-((1E,3E)-3-(Hydroxyimino)but-1-en-1-yl)-2-methoxyphenoxy)-N-(p-tolyl)acetamide]
- IC50 [1, 3]: 112 µM
- Nature in cytotoxicity study ([1]; SH-SY5Y cells): cell proliferative and non-cytotoxic

Compound: CC(/C=C/c1ccc(OCC(=O)Nc2ccccc2)cc1)=N\O [Compound 4i, 2-(4-((1E,3E)-3-(Hydroxyimino)but-1-en-1-yl)phenoxy)-N-phenylacetamide]
- IC50 [1, 3]: 82.3 µM
- Nature in cytotoxicity study ([1]; SH-SY5Y cells): cytotoxic

Compound: CC(/C=C/c1ccc(OCC(=O)Nc2ccccc2F)cc1)=N\O [Compound 4f, N-(2-Fluorophenyl)-2-(4-((1E,3E)-3-(hydroxyimino)but-1-en-1-yl)phenoxy)acetamide]
- IC50 [1, 3]: 66.7 µM
- Nature in cytotoxicity study ([1]; SH-SY5Y cells): cytotoxic

Compound: COc1cc(/C=C/C(C)=N/O)ccc1OCC(=O)Nc1ccccc1C [Compound 4e, 2-(4-((1E,3E)-3-(Hydroxyimino)but-1-en-1-yl)-2-methoxyphenoxy)-N-(o-tolyl)acetamide]
- IC50 [1, 3]: 79.7 µM
- Nature in cytotoxicity study ([1]; SH-SY5Y cells): cytotoxic

- PPAR-γ transcriptional activity (PPAR-γ): dose-dependent enhancement
Compound: COc1cc(/C=C/C(C)=N/O)ccc1OCC(=O)Nc1cccc(C)c1 [Compound 4h, 2-(4-((1E,3E)-3-(Hydroxyimino)but-1-en-1-yl)-2-methoxyphenoxy)-N-(m-tolyl)acetamide]
- Anti-inflammatory and anti-oxidant activity (expression of pro-inflammatory cytokines and ROS) [2]: promising anti-inflammatory activity and anti-oxidant activity
- IC50 [1, 3]: 150 µM
- Nature in cytotoxicity study ([1]; SH-SY5Y cells): cell proliferative and non-cytotoxic
- IC50 [1, 4]: > 100 µM

- PPAR-γ transcriptional activity (PPAR-γ): dose-dependent enhancement
Compound: COc1cc(/C=C/C(C)=N/O)ccc1OCC(=O)Nc1ccc(Cl)cc1 [Compound 4a, N-(4-Chlorophenyl)-2-(4-((1E,3E)-3-(hydroxyimino)but-1-en-1-yl)-2methoxyphenoxy)acetamide]
- Anti-inflammatory and anti-oxidant activity (expression of pro-inflammatory cytokines and ROS) [2]: promising anti-inflammatory activity and anti-oxidant activity
- IC50 [1, 3]: 108 µM
- Nature in cytotoxicity study ([1]; SH-SY5Y cells): cell proliferative and non-cytotoxic
- IC50 [1, 4]: > 100 µM
